Data on four molecules can be found in PubChem BioAssay AID2060329 (Molecular Pharmacology Branch, DTP, NCI, 2025).

Where “and” joins values, the source holds several entries; their conditions need not be identical. Equal values may be shown once.

The subject of this test is MCF7 multi-cell spheroids with HUVEC/MSC, viability. As to the kind of experiment: Anticancer human tumor MCF7 cell line growth inhibition [IpAb].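 As to all read-outs here: spheroids exposed to agents for seven days before readout.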 As to conditions: for viability, T/C: stronger effect = lower value. The source says:
Combinatorial screen of targeted agents with ipatasertib and abemaciclib in multi-cell type tumor spheroids
A high-throughput screen of multi-cell type tumor spheroids was designed to identify active combinations of targeted small molecules and ipatasertib or abemaciclib. Complex spheroids include a stromal component modeled by human endothelial cells (HUVEC) and fibroblasts modeled by human mesenchymal stem cells (MSCs). The concentration ranges selected for each drug and investigational agent were based upon clinically achievable concentrations if the clinical Cmax of the agent was known.
Compounds. The drugs and investigational agents: ipatasertib (NSC767898), abemaciclib(NSC768073), selumetinib (NSC741078), trametinib (758246), adavosertib (NSC754352), everolimus (NSC733504), sapanisertib (NSC764658), vemurafenib (NSC761431), venetoclax (NSC766270), copanlisib (NSC809693), apelisib (NSC765974), palbociblib (NSC758247), vemurafenib (NSC761431), dabrafenib (NSC764134), ravoxertinib (NSC781343), BMS-387032 (NSC767048), sotorasib (NSC818433), talazoparib (NSC767125) and afursertib (NSC778305), were obtained from the National Cancer Institute (NCI) Developmental Therapeutics Program Chemical Repository. The FDA-approved anticancer drug set is available from the NCI Developmental Therapeutics Program. […] The stock solutions were prepared in dimethyl sulfoxide (DMSO, Sigma-Aldrich, St. Louis, MO, cat. D2650) at 800-fold the tested concentration and stored at -70 degrees C prior to their use. All drugs and investigational agents were tested over a range starting from a high concentration at or near the clinical Cmax and decreasing in half-log increments. If the clinical Cmax for an agent had not been determined, the highest concentration tested was 10 microM.
NCI60 Cell Culture. NCI60 cell lines were obtained from the NCI Developmental Therapeutics Program Tumor Repository. For each lot of cells, the Repository performed Applied Biosystems AmpFLSTR Identifiler testing with PCR amplification to confirm consistency with the published Identifier STR profile for each cell line. Cells were kept in continuous culture for no more than 20 passages. The optimal seeding densities for each of the cell lines at each time point assessed were determined prior to performing the concentration response studies. Briefly, the NCI60 human tumor lines were grown as monolayers in RPMI 1640 medium supplemented with 10% FBS and 2 mmol/L L-glutamine.
An additional 9 lines were from the NCI60 cell line panel including MDA-MB-231 breast carcinoma, MDA-MB-468 breast carcinoma, MCF7 breast carcinoma, Hs578T breast carcinoma, MALME-3M melanoma, SK-MEL-2 melanoma, SK-OV-3 ovarian carcinoma, DU-145 prostate carcinoma, PC-3 prostate carcinoma, all cell lines along with major genetic alterations are listed on Table 2. Pooled donor human umbilical vein endothelial cells (HUVEC, Lonza, cat. CC-2519) and human mesenchymal stem cells (hMSC, Lonza, cat. PT-2501) were purchased from Lonza (Walkersville, MD).
PDMR cell lines were grown in complete medium (DC medium): Dulbecco's modified Eagle's medium (DMEM)/F12 supplemented with 5% fetal bovine serum (FBS), 2 mM L-glutamine, 100 U/mL penicillin and 100 µg/ml streptomycin, 0.4 µg/ml hydrocortisone, 10 ng/ml epidermal growth factor (EGF) recombinant human protein, 24 µg/mL adenine, and 0.1 mg/mL primocin. During culture from frozen stock vials, PDMR cells were cultured in the same medium containing 10 µM Y-27632 (see Table 3). The PDCs were cultured in complete DMEM/F12 media without 10 microM Y-27632 dihydrochloride for at least two passages prior to the screen. The pooled donor HUVEC and hMSC were cultured in endothelial cell growth medium 2 (PromoCell, Heidelberg, Germany, cat. C-22011) and mesenchymal stem cell growth medium 2 (PromoCell, cat. C-28009), respectively. For all experiments, HUVEC and hMSC were used at passages </=5.
[…]

[1] abbreviates: curve of first compound, second compound 0.1 µM.
Where [2] appears, read: curve of first compound, second compound 0.316 µM.
Setting [3] is: curve of first compound, second compound 1 µM.
[4] abbreviates: curve of first compound, second compound 3.16 µM.
Setting [5] is: curve of first compound, second compound 10 µM.
[6] abbreviates: second compound 0.1 µM, first compound 0.0316 µM.
The mark [7] stands for this setting: second compound 0.1 µM, first compound 0.1 µM.
The mark [8] stands for this setting: second compound 0.316 µM, first compound 0.0316 µM.
Where [9] appears, read: second compound 0.316 µM, first compound 0.1 µM.
Setting [10] is: second compound 1 µM, first compound 0.0316 µM.
[11] abbreviates: second compound 1 µM, first compound 0.1 µM.
Setting [12] is: second compound 3.16 µM, first compound 0.0316 µM.
[13] abbreviates: second compound 3.16 µM, first compound 0.1 µM.
The mark [14] stands for this setting: second compound 10 µM, first compound 0.0316 µM.
[15] abbreviates: second compound 10 µM, first compound 0.1 µM.

In general, IC50 refers to the midpoint of a concentration-inhibition curve. A word on the viability, T/C: it is the result in the treated group divided by that in the control group, in per cent. Take `CC1(C)CCC(CN2CCN(c3ccc(C(=O)NS(=O)(=O)c4ccc(NCC5CCOCC5)c([N+](=O)[O-])c4)c(Oc4cnc5[nH]ccc5c4)c3)CC2)=C(c2ccc(Cl)cc2)C1` + CC(C)NCC(C(=O)N1CCN(c2ncnc3c2C(C)CC3O)CC1)c1ccc(Cl)cc1: the 50% inhibitory concentration (IC50) by setting is: under setting [1], 6000 nM; under setting [2], 4520 nM; under setting [3], 2510 nM; under setting [4], 33.7 nM; under setting [5], less than 31.6 nM. The viability, T/C is, setting by setting: under setting [6], 85%; under setting [7], 83.3%; (second compound 0.1 µM, first compound 0.316 µM) 87.6%; (second compound 0.1 µM, first compound 1 µM) 84.2%; (second compound 0.1 µM, first compound 3.16 µM) 84.9%; (second compound 0.1 µM, first compound 10 µM) 22.2%. The viability, T/C was 72.4% under setting [8]; 74.9% under setting [9]; 69.5% (second compound 0.316 µM, first compound 0.316 µM); 72.1% (second compound 0.316 µM, first compound 1 µM); 67.3% (second compound 0.316 µM, first compound 3.16 µM); 11.3% (second compound 0.316 µM, first compound 10 µM). Moreover, the viability, T/C by setting is: under setting [10], 69.4%; under setting [11], 64.9%; (second compound 1 µM, first compound 0.316 µM) 70.1%; (second compound 1 µM, first compound 1 µM) 56.1%; (second compound 1 µM, first compound 3.16 µM) 49.5%; (second compound 1 µM, first compound 10 µM) 10.9%. Besides, the viability, T/C by setting is: under setting [12], 47.9%; under setting [13], 51.6%; (second compound 3.16 µM, first compound 0.316 µM) 51.3%; (second compound 3.16 µM, first compound 1 µM) 39.7%; (second compound 3.16 µM, first compound 3.16 µM) 34.1%; (second compound 3.16 µM, first compound 10 µM) 9.03%. The viability, T/C is, setting by setting: under setting [14], 39.3%; under setting [15], 34.5%; (second compound 10 µM, first compound 0.316 µM) 32.1%; (second compound 10 µM, first compound 1 µM) 27.8%; (second compound 10 µM, first compound 3.16 µM) 29.7%; (second compound 10 µM, first compound 10 µM) 5.76%.
On to `CCCS(=O)(=O)Nc1ccc(F)c(C(=O)c2c[nH]c3ncc(-c4ccc(Cl)cc4)cc23)c1F`, for which the viability, T/C (compound 0.0316 µM) is 102% and 98.6%; the viability, T/C (compound 0.1 µM) is 106% and 100%; the viability, T/C (compound 0.316 µM) is 102% and 96.2%; the viability, T/C (compound 1 µM) is 104% and 97%; the viability, T/C (compound 3.16 µM) was 99.4% and 93.1%; the viability, T/C (compound 10 µM) was 105% and 97.9%. In addition, under “curve of compound”, the IC50 was greater than 10000 nM.
For the molecule `Cc1nc(NC(=O)N2CCCC2C(N)=O)sc1-c1ccnc(C(C)(C)C(F)(F)F)c1` (centres undefined), the viability, T/C is 74.8% and 93.7% (compound 0.0316 µM); 64.7% and 93.4% (compound 0.1 µM); 65.9% and 78.8% (compound 0.316 µM); 47.6% and 70.3% (compound 1 µM); 48.1% and 63.4% (compound 3.16 µM); 36.2% and 43% (compound 10 µM). Further, the 50% inhibitory concentration (IC50) (curve of compound) is 1540 nM and 6660 nM.
On to `CC(C)n1nc(-c2ccc3oc(N)nc3c2)c2c(N)ncnc21` + CC(C)NCC(C(=O)N1CCN(c2ncnc3c2C(C)CC3O)CC1)c1ccc(Cl)cc1, for which the half-maximal inhibitory concentration (IC50) by setting is: under setting [1], 13.9 nM; under setting [2], 8.42 nM; under setting [3], 2.59 nM; under setting [4], 0.594 nM; under setting [5], less than 0.316 nM. Further, the viability, T/C is 88.7% (second compound 0.1 µM, first compound 0.000316 µM); 92.6% (second compound 0.1 µM, first compound 0.001 µM); 77.4% (second compound 0.1 µM, first compound 0.00316 µM); 58.9% (second compound 0.1 µM, first compound 0.01 µM); 29.5% under setting [6]; 13.1% under setting [7]. Moreover, the viability, T/C runs as follows: (second compound 0.316 µM, first compound 0.000316 µM) 82.5%; (second compound 0.316 µM, first compound 0.001 µM) 85.9%; (second compound 0.316 µM, first compound 0.00316 µM) 65.4%; (second compound 0.316 µM, first compound 0.01 µM) 50.3%; under setting [8], 17.9%; under setting [9], 9.55%. Moreover, the viability, T/C reads like this: (second compound 1 µM, first compound 0.000316 µM) 77.5%; (second compound 1 µM, first compound 0.001 µM) 64.8%; (second compound 1 µM, first compound 0.00316 µM) 48.4%; (second compound 1 µM, first compound 0.01 µM) 21.1%; under setting [10], 8.63%; under setting [11], 6.29%. Further, the viability, T/C was 56.1% (second compound 3.16 µM, first compound 0.000316 µM); 42.6% (second compound 3.16 µM, first compound 0.001 µM); 36.5% (second compound 3.16 µM, first compound 0.00316 µM); 9.09% (second compound 3.16 µM, first compound 0.01 µM); 6.78% under setting [12]; 7.35% under setting [13]. The viability, T/C is 48.4% (second compound 10 µM, first compound 0.000316 µM); 45.5% (second compound 10 µM, first compound 0.001 µM); 17.5% (second compound 10 µM, first compound 0.00316 µM); 8.22% (second compound 10 µM, first compound 0.01 µM); 8.47% under setting [14]; 6.95% under setting [15].
